Results on 30 molecules are retold here after US9242984B2, “Pyrazolyl derivatives as Syk inhibitors” (Merck Sharp & Dohme Corp., priority 2012, dated 2016).

Molecules are shown by their SMILES. Where two headings read alike, the source gives them in different places.

This assay concerns the target T1, recombinant human Syk (GST-hSyk fusion protein) (Homo sapiens, UniProt P43405).
T1 construct: purchased Carna Biosciences 08-176
As to the kind of experiment: Homogeneous Time-Resolved Fluorescence (HTRF) assay for the recombinant human Syk enzyme. To be noted: 10-dose titration, 25 μM ATP. In kind it is biochemical. A digest of the protocol:
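IC50 came from a four-parameter fit over ten doses, 10 μM to 0.508 nM, with HTRF read-out (Eu-anti-pTyr antibody, SA-APC, EDTA stop, 30 min). The enzyme, 5 pM GST-hSyk, met compound for 10 min, then phosphorylated 250 nM biotin-peptide with 25 μM ATP and 5 mM Mg for 45 min at room temperature, pH 7.5.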
On the technique in general: Time-resolved FRET reads energy transfer from a long-lived donor to a nearby acceptor.

Where [1] appears, read: IC50 class, read-out: rhSYK Activity.

On to `Cc1cc(Nc2nccc(C(F)(F)F)n2)cc(-c2cnn(CC(C)(O)CC#N)c2)c1` (centres unmarked) [Example 20.3, 3-hydroxy-3-methyl-4-[4-(3-methyl-5-{[4-(trifluoromethyl)pyrimidin-2-yl]amino}phenyl)-1H-pyrazol-1-yl]butanenitrile], for which the IC50 under setting [1] was at most 100 nM. With `Cc1cc(Nc2cc(C(F)(F)F)ccn2)nc(-c2cnn(CC(C)(O)CC#N)c2)c1` (centres unmarked) [Example 20.4, 3-hydroxy-3-methyl-4-[4-(4-methyl-6-{[4-(trifluoromethyl)pyridin-2-yl]amino}pyridin-2-yl)-1H-pyrazol-1-yl]butanenitrile], the IC50 under setting [1] was at most 100 nM.

`Cc1cc(Nc2ncc(F)c(C(F)F)n2)cc(-c2cnn(CC(C)(O)CC#N)c2)c1` (centres unmarked) [Example 20.5, 4-[4-(3-{[4-(difluoromethyl)-5-fluoropyrimidin-2-yl]amino}-5-methylphenyl)-1H-pyrazol-1-yl]-3-hydroxy-3-methylbutanenitrile]: the IC50 under setting [1] is at most 100 nM. In the case of `Cc1cc(Nc2ncc(F)c(C(F)F)n2)cc(-c2cnn(CC(C)(O)CC#N)c2)c1` (centres unmarked) [Example 20.6, 4-[4-(3-{[4-(difluoromethyl)-5-fluoropyrimidin-2-yl]amino}-5-methylphenyl)-1H-pyrazol-1-yl]-3-hydroxy-3-methylbutanenitrile], the IC50 under setting [1] is at most 100 nM. Regarding `Cc1cc(Nc2nccc(C(F)F)n2)cc(-c2cnn(CC(C)(O)CC#N)c2)c1` (centres unmarked) [Example 20.7, 4-[4-(3-{[4-(difluoromethyl)pyrimidin-2-yl]amino}-5-methylphenyl)-1H-pyrazol-1-yl]-3-hydroxy-3-methylbutanenitrile], the IC50 under setting [1] is at most 100 nM. Take `Cc1cc(Nc2nccc(C(F)F)n2)cc(-c2cnn(CC(C)(O)CC#N)c2)c1` (centres unmarked) [Example 20.8, 4-[4-(3-{[4-(difluoromethyl)pyrimidin-2-yl]amino}-5-methylphenyl)-1H-pyrazol-1-yl]-3-hydroxy-3-methylbutanenitrile]: under setting [1], the IC50 is at most 100 nM.

With `Cc1cc(Nc2nccc(C(C)(F)F)n2)cc(-c2cnn(CC(C)(O)CC#N)c2)c1` (centres unmarked) [Example 20.9, 4-[4-(3-{[4-(1,1-difluoroethyl)pyrimidin-2-yl]amino}-5-methylphenyl)-1H-pyrazol-1-yl]-3-hydroxy-3-methylbutanenitrile], the IC50 under setting [1] was at most 100 nM. On to `Cc1cc(Nc2nccc(C(C)(F)F)n2)cc(-c2cnn(CC(C)(O)CC#N)c2)c1` (centres unmarked) [Example 20.10, 4-[4-(3-{[4-(1,1-difluoroethyl)pyrimidin-2-yl]amino}-5-methylphenyl)-1H-pyrazol-1-yl]-3-hydroxy-3-methylbutanenitrile], for which the IC50 under setting [1] is at most 100 nM. On the same count and under the same terms, next, `CC(=O)C(C)n1cc(-c2cc(C)cc(Nc3nccc(C(F)F)n3)c2)cn1` (centres unmarked) [Example 21.3, 3-[4-(3-{[4-(difluoromethyl)pyrimidin-2-yl]amino}-5-methylphenyl)-1H-pyrazol-1-yl]butan-2-one]: at most 100 nM; `Cc1cc(Nc2cc(C(F)(F)F)ccn2)nc(-c2cnn(CC(C)(O)CO)c2)c1` (centres unmarked) [Example 21.4, 2-methyl-3-[4-(4-methyl-6-{[4-(trifluoromethyl)pyridin-2-yl]amino}pyridin-2-yl)-1H-pyrazol-1-yl]propane-1,2-diol]: at most 100 nM. `Cc1cc(Nc2cc(C(F)(F)F)ccn2)nc(-c2cnn(CC(C)(O)CO)c2)c1` (centres unmarked) [Example 21.5, 2-methyl-3-[4-(4-methyl-6-{[4-(trifluoromethyl)pyridin-2-yl]amino}pyridin-2-yl)-1H-pyrazol-1-yl]propane-1,2-diol]: the IC50 under setting [1] was at most 100 nM. Turning to `Cc1cc(Nc2nccc(C(F)F)n2)cc(-c2cnn(CC(C)(O)C(C)(C)O)c2)c1` (centres unmarked) [Example 21.6, 1-[4-(3-{[4-(difluoromethyl)pyrimidin-2-yl]amino}-5-methylphenyl)-1H-pyrazol-1-yl]-2,3-dimethylbutane-2,3-diol], under setting [1], the IC50 is at most 100 nM. In the case of `Cc1cc(Nc2nccc(C(F)F)n2)cc(-c2cnn(CC(C)(O)C(C)(C)O)c2)c1` (centres unmarked) [Example 21.7, 1-[4-(3-{[4-(difluoromethyl)pyrimidin-2-yl]amino}-5-methylphenyl)-1H-pyrazol-1-yl]-2,3-dimethylbutane-2,3-diol], the IC50 under setting [1] is at most 100 nM. `Cc1cc(Nc2nccc(C(F)F)n2)cc(-c2cnn(C(C)C(C)(O)CO)c2)c1` (centres unmarked) [Example 22.3, 3-[4-(3-{[4-(difluoromethyl)pyrimidin-2-yl]amino}-5-methylphenyl)-1H-pyrazol-1-yl]-2-methylbutane-1,2-diol]: the IC50 under setting [1] was at most 100 nM. For the molecule `Cc1cc(Nc2nccc(C(C)(F)F)n2)cc(-c2cnn(CC(C)(O)C(C)(C)O)c2)c1` (centres unmarked) [Example 22.4, 1-[4-(3-{[4-(1,1-difluoroethyl)pyrimidin-2-yl]amino}-5-methylphenyl)-1H-pyrazol-1-yl]-2,3-dimethylbutane-2,3-diol], under setting [1], the IC50 was at most 100 nM. Consider `Cc1cc(Nc2nccc(C(C)(F)F)n2)cc(-c2cnn(CC(C)(O)C(C)(C)O)c2)c1` (centres unmarked) [Example 22.5, 1-[4-(3-{[4-(1,1-difluoroethyl)pyrimidin-2-yl]amino}-5-methylphenyl)-1H-pyrazol-1-yl]-2,3-dimethylbutane-2,3-diol], for which the IC50 under setting [1] is at most 100 nM. With `Cc1cc(Nc2nccc(C(F)F)n2)cc(-c2cnn(C3CCCC(C)(O)C3O)c2)c1` (centres unmarked) [Example 22.6, 3-[4-(3-{[4-(difluoromethyl)pyrimidin-2-yl]amino}-5-methylphenyl)-1H-pyrazol-1-yl]-1-methylcyclohexane-1,2-diol], the IC50 was 1.7 nM (read-out: rhSYK IC50) and at most 100 nM under setting [1]. On to `Cc1cc(Nc2nccc(C(F)F)n2)cc(-c2cnn(C3CCC(C)(C)C(O)C3O)c2)c1` (centres unmarked) [Example 22.7, 6-[4-(3-{[4-(difluoromethyl)pyrimidin-2-yl]amino}-5-methylphenyl)-1H-pyrazol-1-yl]-3,3-dimethylcyclohexane-1,2-diol], for which the IC50 reads like this: (read-out: rhSYK IC50) 2.6 nM; under setting [1], at most 100 nM. The corresponding values for `Cc1cc(Nc2nccc(C(F)F)n2)cc(-c2cnn(C3CCC(C)(C)C(O)C3(C)O)c2)c1` (centres unmarked) [Example 22.8, 6-[4-(3-{[4-(difluoromethyl)pyrimidin-2-yl]amino}-5-methylphenyl)-1H-pyrazol-1-yl]-1,3,3-trimethylcyclohexane-1,2-diol] are 5.9 nM and at most 100 nM.

In the case of `Cc1cc(Nc2nccc(C(F)F)n2)cc(-c2cnn(C3CC(C)(C)CC(C)(O)C3O)c2)c1` (centres unmarked) [Example 22.9, 3-[4-(3-{[4-(difluoromethyl)pyrimidin-2-yl]amino}-5-methylphenyl)-1H-pyrazol-1-yl]-1,5,5-trimethylcyclohexane-1,2-diol], the IC50 is, setting by setting: (read-out: rhSYK IC50) 1.1 nM; under setting [1], at most 100 nM. On the same counts, the results for `Cc1cc(Nc2nccc(C(F)F)n2)cc(-c2cnn(C3CC(C)(C)CC(C)(O)C3O)c2)c1` (centres unmarked) [Example 22.10] are 6.7 nM and at most 100 nM. For `Cc1cc(Nc2nccc(C(F)F)n2)cc(-c2cnn(C3CCCC(C)(O)C3(C)O)c2)c1` (centres unmarked) [Example 22.11, 3-[4-(3-{[4-(difluoromethyl)pyrimidin-2-yl]amino}-5-methylphenyl)-1H-pyrazol-1-yl]-1,2-dimethylcyclohexane-1,2-diol], the IC50 reads like this: (read-out: rhSYK IC50) 2.5 nM; under setting [1], at most 100 nM. The corresponding values for `Cc1cc(Nc2nccc(C(F)F)n2)cc(-c2cnn(C3CCCC(C)(O)C3(C)O)c2)c1` (centres unmarked) [Example 22.12, 3-[4-(3-{[4-(difluoromethyl)pyrimidin-2-yl]amino}-5-methylphenyl)-1H-pyrazol-1-yl]-1,2-dimethylcyclohexane-1,2-diol] are 7.4 nM and at most 100 nM. The corresponding values for `Cc1cc(Nc2nccc(C(F)F)n2)cc(-c2cnn(C3CCC(O)C3(C)O)c2)c1` (centres unmarked) [Example 22.13, 5-[4-(3-{[4-(difluoromethyl)pyrimidin-2-yl]amino}-5-methylphenyl)-1H-pyrazol-1-yl]-1-methylcyclopentane-1,2-diol] are 3.6 nM and at most 100 nM.

With `Cc1cc(Nc2nccc(C(F)F)n2)cc(-c2cnn(C3CCC(O)C3(C)O)c2)c1` (centres unmarked) [Example 22.14, 5-[4-(3-{[4-(difluoromethyl)pyrimidin-2-yl]amino}-5-methylphenyl)-1H-pyrazol-1-yl]-1-methylcyclopentane-1,2-diol], the IC50 was 5.8 nM (read-out: rhSYK IC50) and at most 100 nM under setting [1]. On the same counts, the results for `Cc1cc(Nc2nccc(C(F)F)n2)cc(-c2cnn(C3CCCCC(O)C3O)c2)c1` (centres unmarked) [Example 22.15, 3-[4-(3-{[4-(difluoromethyl)pyrimidin-2-yl]amino}-5-methylphenyl)-1H-pyrazol-1-yl]cycloheptane-1,2-diol] are 2.6 nM and at most 100 nM.

For the molecule `Cc1cc(Nc2nccc(C(F)F)n2)cc(-c2cnn(CC3OC(=O)NC3C3CC3)c2)c1` (centres unmarked) [Example 23.17, 4-cyclopropyl-5-{[4-(3-{[4-(difluoromethyl)pyrimidin-2-yl]amino}-5-methylphenyl)-1H-pyrazol-1-yl]methyl}-1,3-oxazolidin-2-one], the IC50 under setting [1] is at most 100 nM. Consider `Cc1cc(Nc2nccc(C(F)F)n2)cc(-c2cnn(CCNC(=O)C3CC3)c2)c1` [Example 26.1, N-(2-(4-(3-((4-(Difluoromethyl)pyrimidin-2-yl)amino)-5-methylphenyl)-1H-pyrazol-1-yl)ethyl)cyclopropanecarboxamide], for which the IC50 runs as follows: (read-out: rhSYK IC50) 25.2 nM; under setting [1], at most 100 nM. In the case of `Cc1cc(Nc2nccc(C(F)F)n2)cc(-c2cnn(CC(C)(C)NC(=O)C3CC3)c2)c1` [Example 26.2, N-{2-[4-(3-{[4-(difluoromethyl)pyrimidin-2-yl]amino}-5-methylphenyl)-1H-pyrazol-1-yl]-1,1-dimethylethyl}cyclopropanecarboxamide], under setting [1], the IC50 was at most 100 nM. In the case of `COCC(=O)NC(C)(C)Cn1cc(-c2cc(C)cc(Nc3nccc(C(F)F)n3)c2)cn1` [Example 26.3, N-{2-[4-(3-{[4-(difluoromethyl)pyrimidin-2-yl]amino}-5-methylphenyl)-1H-pyrazol-1-yl]-1,1-dimethylethyl}-2-methoxyacetamide], the IC50 under setting [1] was at most 100 nM.
